This is an account of results in US20210380606A1, “5-AZAINDAZOLE DERIVATIVES AS ADENOSINE RECEPTOR ANTAGONISTS” (Merck Patent GmbH, priority 2018, published 2021).

The target of one experiment is T1, human A2A receptors (Homo sapiens, UniProt P29274).
T1 construct: expressed in transfected cells; host or cells: HEK293
Nature of the experiment: Functional human A2A receptor activity, recombinant HEK293 cells, cAMP (HTRF). The class given is cell-based. The conditions noted are these: read-out: A2A (Category). The procedure:
(§1) The functional activities of human A2A and A2B receptors were determined by quantification of cAMP, being the second messenger for adenosine receptors.
(§2) After a 15 min incubation, HTRF reagents (cAMP dynamic 2, Cis Bio) were added and the cellular cAMP levels were determined using the ENVISION (Perkin Elmer) plate reader.

The target of the next experiment is T2, human A2B receptors (Homo sapiens, UniProt P29275).
T2 construct: expressed in transfected cells; host or cells: HEK293
T2 sequence (P29275 1-332): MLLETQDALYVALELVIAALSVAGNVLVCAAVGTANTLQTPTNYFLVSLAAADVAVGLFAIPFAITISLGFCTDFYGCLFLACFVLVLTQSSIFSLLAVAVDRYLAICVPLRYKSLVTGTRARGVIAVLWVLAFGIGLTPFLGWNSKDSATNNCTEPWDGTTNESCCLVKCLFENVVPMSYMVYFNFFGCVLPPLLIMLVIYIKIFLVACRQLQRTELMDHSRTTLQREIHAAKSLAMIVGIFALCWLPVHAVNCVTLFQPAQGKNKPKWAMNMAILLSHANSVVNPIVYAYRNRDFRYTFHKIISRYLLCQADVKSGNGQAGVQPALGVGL
Nature of the experiment: Functional human A2B receptor activity, recombinant HEK293 cells, cAMP (HTRF). The class given is cell-based. The following applies: read-out: A2B (Category). The procedure: as §1, §2
A general note: TR-FRET usually uses a lanthanide donor and a delayed reading to cut background.

Molecules are shown by their SMILES.

T1 sequence (P29274 whole entry): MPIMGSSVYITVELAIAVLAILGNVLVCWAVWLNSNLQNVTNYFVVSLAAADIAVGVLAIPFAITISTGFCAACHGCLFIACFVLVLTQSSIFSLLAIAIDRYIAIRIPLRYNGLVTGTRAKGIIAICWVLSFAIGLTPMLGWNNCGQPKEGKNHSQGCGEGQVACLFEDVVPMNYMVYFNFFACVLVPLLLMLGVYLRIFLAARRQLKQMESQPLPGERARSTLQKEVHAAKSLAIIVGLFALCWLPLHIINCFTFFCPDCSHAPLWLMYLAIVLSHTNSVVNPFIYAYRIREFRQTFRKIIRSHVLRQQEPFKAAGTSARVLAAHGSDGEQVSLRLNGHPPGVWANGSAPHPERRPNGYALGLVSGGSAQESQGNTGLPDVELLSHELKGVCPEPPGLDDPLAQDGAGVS

`O=C(c1cc2c(cn1)c(-c1cnc3ccc(F)cn13)nn2CC(F)(F)F)N1CCCOCC1` [Compound 80, [3-(6-Fluoro-imidazo[1,2-a]pyridin-3-yl)-1-(2,2,2-trifluoro-ethyl)-1H-pyrazolo[4,3-c]pyridin-6-yl]-1,4-oxazepan-4-yl-methanone]: the figures for the IC50 at human A2A receptors and at human A2B receptors were less than 100 nM and less than 1000 nM, respectively.
On to `N#Cc1ccc2ncc(-c3nn(CC(F)(F)F)c4cc(C(=O)N5CCCOCC5)ncc34)n2c1` [Compound 81, 3-[6-(1,4-Oxazepane-4-carbonyl)-1-(2,2,2-trifluoro-ethyl)-1H-pyrazolo[4,3-c]pyridin-3-yl]-imidazo[1,2-a]pyridine-6-carbonitrile], for which the IC50 was less than 100 nM on human A2A receptors and less than 1000 nM on human A2B receptors.
In the case of `O=C(c1cc2c(cn1)c(-c1cnc3ccc(F)cn13)nn2CC(F)(F)F)N1CC2CCC(C1)O2` [Compound 82, [3-(6-Fluoro-imidazo[1,2-a]pyridin-3-yl)-1-(2,2,2-trifluoro-ethyl)-1H-pyrazolo[4,3-c]pyridin-6-yl]-(8-oxa-3-aza-bicyclo[3.2.1]oct-3-yl)-methanone], the IC50 at human A2A receptors is less than 100 nM; on human A2B receptors it was less than 1000 nM.
For the molecule `O=C(c1cc2c(cn1)c(-c1cnc3c(F)cc(F)cn13)nn2CC(F)(F)F)N1CC2CCC(C1)O2` [Compound 83, [3-(6,8-Difluoro-imidazo[1,2-a]pyridin-3-yl)-1-(2,2,2-trifluoro-ethyl)-1H-pyrazolo[4,3c]pyridin-6-yl]-(8-oxa-3-aza-bicyclo[3.2.1]oct-3-yl)-methanone], the IC50 at human A2A receptors was less than 100 nM; on human A2B receptors it was less than 1000 nM.
Regarding `O=C(c1cc2c(cn1)c(-c1cnc3ccc(F)cn13)nn2CC(F)(F)F)N1[C@@H]2CC[C@H]1C[C@@H](O)C2` [Compound 86, [3-(6-fluoroimidazo[1,2-a]pyridin-3-yl)-1-(2,2,2-trifluoroethyl)pyrazolo[4,3-c]pyridin-6-yl]-(3-endo-hydroxy-8-azabicyclo[3.2.1]octan-8-yl)methanone], the IC50 at human A2A receptors and on human A2B receptors was less than 100 nM in each case.
Turning to `O=C(c1cc2c(cn1)c(-c1cnc3ccccn13)nn2CC(F)(F)F)N1[C@@H]2CC[C@H]1C[C@@H](O)C2` [Compound 87, [3-(imidazo[1,2-a]pyridin-3-yl)-1-(2,2,2-trifluoroethyl)pyrazolo[4,3-c]pyridin-6-yl]-(3-endo-hydroxy-8-azabicyclo[3.2.1]octan-8-yl)methanone], the IC50 at human A2A receptors was less than 100 nM; on human A2B receptors, less than 1000 nM.
For the molecule `O=C(c1cc2c(cn1)c(-c1cnc3ccc(O)cn13)nn2CC(F)(F)F)N1[C@@H]2CC[C@H]1C[C@@H](O)C2` [Compound 88, (3-endo-hydroxy-8-azabicyclo[3.2.1]octan-8-yl)-[3-(6-hydroxyimidazo[1,2-a]pyridin-3-yl)-1-(2,2,2-trifluoroethyl)pyrazolo[4,3-c]pyridin-6-yl]methanone], the results for the IC50 on human A2A receptors and on human A2B receptors were less than 100 nM and less than 1000 nM, respectively.
For the molecule `O=C(c1cc2c(cn1)c(-c1cnn3ccccc13)nn2CC(F)(F)F)N1CCCCCC1` [Compound 89, Azepan-1-yl-[3-pyrazolo[1,5-a]pyridin-3-yl-1-(2,2,2-trifluoro-ethyl)-1H-pyrazolo[4,3-c]pyridin-6-yl]-methanone hydrochoride], the IC50 at human A2A receptors and on human A2B receptors was less than 100 nM throughout.
`O=C(c1cc2c(cn1)c(-c1coc3ccccc13)nn2CC(F)(F)F)N1CCCCCC1` [Compound 90, Azepan-1-yl-[3-benzofuran-3-yl-1-(2,2,2-trifluoro-ethyl)-1H-pyrazolo[4,3-c]pyridin-6-yl]-methanone]: the IC50 on human A2A receptors and on human A2B receptors was less than 100 nM in each case.
Regarding `O=C(c1cc2c(cn1)c(-c1c[nH]c3ccccc13)nn2CC(F)(F)F)N1CCCCCC1` [Compound 91, Azepan-1-yl-[3-(1H-indol-3-yl)-1-(2,2,2-trifluoro-ethyl)-1H-pyrazolo[4,3-c]pyridin-6-yl]-methanone], the IC50 on human A2A receptors and at human A2B receptors was less than 100 nM each time.
